Ends that are not written are not given here.
Experiments:
[1] = tested on: rats with anti-Thy1 disease; assay: Glomerular immunostaining score for TGF-β1, TGF-β2, TGF-βRI, TGF-βRII and TSP1 in the anti-Thy1 model; type: in vivo, rat
Text: (§1) Experimental design. Experimental mesangial proliferative glomerulonephritis was induced using the monoclonal mouse anti-Thy1 antibody OX-7. Peptides were continuously infused intravenously (i.v.) via jugular vein using osmotic minipumps starting sixteen hours after disease induction. The effects of the hexapeptide AAWSHW (SEQ ID NO:22) (that interferes with the TSP1-mature TGF-β interaction) or the LSKL-peptide (SEQ ID NO:21) (that blocks the TSP1-LAP interaction) were compared to a control peptide (SLLK) in the anti-Thy1 model. Tissues from different time points (days three, five, eight) of this experiment were analyzed in regard to mesangiolysis, macrophage-influx, MC-proliferation, MC-activation, microaneurysm and matrix formation, GEN proliferation, TSP1, TGF-β1 and 2, as well as TGF-βRI and RII. Functional parameters such as blood pressure, proteinuria, and creatinine clearance were also determined. On day eight, glomerular secretion of active TGF-β was determined in individual animals by incubating isolated glomeruli for twenty-four hours in DMEM and measuring TGF-β activity in glomerular supernatants using the NRK-bioassay.
(§2) Animal model Experimental mesangial proliferative glomerulonephritis (anti-Thy1 model) was induced in Sprague Dawley rats (180-200 g; Charles River, Sulzfeld, Germany) by a single injection of 1 mg/kg of the mouse monoclonal anti-Thy1 antibody OX-7 (European Collection of Animal Cell Culture, Salisbury, England). In this animal model, complete anti-Thy1 antibody binding occurs within an hour (Johnson et al. (1991) Am. J. Pathol. 138 (2), 313-21). To avoid potential interference of the LAP-peptides with anti-Thy1 antibody binding and subsequent mesangiolysis, the peptide treatment was started sixteen hours after disease induction, when binding of the anti-Thy1 antibody to the mesangium and subsequent mesangiolysis had already occurred. The peptides used in this study were synthesized, purified, and analyzed as described elsewhere (Crawford et al. (1998) Cell 93, 1159-1170).
(§3) Renal biopsies as described previously (Hugo et al. (1997) J. Clin. Invest. 100, 786-794) were performed on days three and five, and the experiment was finished on day eight. To determine DNA incorporation into proliferating cells, each animal was injected intravenously with BrdU (50 mg/kg bw) ninety minutes before the second survival biopsy was taken on day five (peak of MC proliferation). Renal biopsies were fixed in methyl Carnoy's, 10% formalin and/or OCT and snap frozen. A twenty-four hour urine collection for measurement of protein and creatinine was done from day seven to eight, when maximal proteinuria occurs in this model (unpublished observation). Blood pressure measurements were done twice before and twice after disease induction. In renal biopsies, the frequency of glomerular microaneurysms, the number of infiltrating macrophages, the number of proliferating MC, the expression of the contractile protein α-sm actin as a marker of MC-activation, and the expression of TGF-β1, TGF-β2, TGF-βRI, TGF-βRII, TSP1, as well as of extracellular matrix proteins such as collagen I, collagen IV and fibronectin were determined. For TGF-β activity measurements in individual animals on day eight, glomeruli were isolated by differential sieving (Johnson et al. (1991) Am. J. Pathol. 138 (2), 313-21) and counted using five aliquots. Glomerular isolates were discarded if purity was less than 95%. 8000 glomeruli/ml were incubated in DMEM at 37° C. After a twenty-four hour incubation period, glomerular supernatants were stored by −70° C. until TGF-β activity measurements were done.
(§4) Peptide infusion. All peptides (at a concentration of 3.5 mg/ml) were continuously infused for seven days via a catheter in the right jugular vein using osmotic minipumps (Alzet Corp./Charles River, Sulzfeld, Germany). […]

[2] = tested on: rats with anti-Thy1 disease; assay: Glomerular extracellular matrix formation (Masson's Trichrome, collagen I, collagen IV, fibronectin stains) in the anti-Thy1 model; type: in vivo, rat
Text: as §1, §2, §3, §4

[3] = tested on: rats with anti-Thy1 disease; assay: Glomerular MC-proliferation, MC-activation and macrophage influx in the anti-Thy1 model; type: in vivo, rat
Text: as §1, §2, §3, §4

[4] = tested on: activation of TGF-β by TSP1; conditions: background, literature; cited from earlier work
[5] = tested on: rats with anti-Thy1 disease; assay: Mesangiolysis, microaneurysm formation and GEN-proliferation in the anti-Thy1 model; type: in vivo, rat; conditions: for Glomerular GEN-proliferation (double staining for RECA-1 and PCNA) / mesangiolysis scores: day three; for mesangiolysis scores: scale 0-IV
Text: as §1, §2, §3, §4

TGF-β = assay: Glomerular secretion of active TGF-β (NRK-bioassay of supernatants of isolated glomeruli) in anti-Thy1 rats; type: in vivo, rat; conditions: for Active TGF-β (colonies > 62 um): day 8 glomeruli, 24 h supernatant, NRK-bioassay, continuous i.v. peptide infusion
Text: as §1, §2
as §3, with “After a twenty-four hour incubation period, glomerular supernatants were stored by −70° C. until TGF-β activity measurements were done.” left out

[6] = tested on: rats with anti-Thy1 disease; assay: Functional parameters (proteinuria, creatinine clearance, blood urea nitrogen, systolic blood pressure) in the anti-Thy1 model; type: in vivo, rat; conditions: for Proteinuria (mg/24 hours): day 8 (urine collection day seven to eight); for twenty-four hour proteinuria: days seven to eight; for Blood urea nitrogen: rat, in vivo
Text: as §1, §2, §3, §4

Substance: AAWSHW
- TGF-β1 (score 0-4) ([1]; day 3): 0.4 ± 0.2 score 0-4
- TGF-β2 (score 0-4) ([1]; day 3): 0.4 ± 0.3 score 0-4
- TGF-βRI (score 0-4) ([1]; day 3): 0.5 ± 0.3 score 0-4
- TGF-βRII (score 0-4) ([1]; day 3): 0.5 ± 0.5 score 0-4
- TSP I (score 0-4) ([1]; day 3): 0.6 ± 0.2 score 0-4
- TGF-β1 (score 0-4) ([1]; day 5): 1.9 ± 0.9 score 0-4
- TGF-β2 (score 0-4) ([1]; day 5): 1.1 ± 0.7 score 0-4
- TGF-βRI (score 0-4) ([1]; day 5): 1.9 ± 0.4 score 0-4
- TGF-βRII (score 0-4) ([1]; day 5): 1.4 ± 0.6 score 0-4
- TSP I (score 0-4) ([1]; day 5): 1.5 ± 0.9 score 0-4
- TGF-β1 (score 0-4) ([1]; day 8): 1.6 ± 1.1 score 0-4
- TGF-β2 (score 0-4) ([1]; day 8): 0.5 ± 0.4 score 0-4
- TGF-βRI (score 0-4) ([1]; day 8): 1.6 ± 0.6 score 0-4
- TGF-βRII (score 0-4) ([1]; day 8): 1.2 ± 0.5 score 0-4
- TSP I (score 0-4) ([1]; day 8): 0.8 ± 0.7 score 0-4
- Matrix Collagen 1 (score 0-4) ([2]; day 3): 0.1 ± 0.1 score 0-4
- Matrix Collagen IV (score 0-4) ([2]; day 3): 1.0 ± 0.5 score 0-4
- Matrix Fibronectin (score 0-4) ([2]; day 3): 1.3 ± 0.3 score 0-4
- Matrix Trichrome (score 0-3) ([2]; day 3): 0.5 ± 0.3 score 0-3
- Matrix Collagen 1 (score 0-4) ([2]; day 5): 0.8 ± 0.6 score 0-4
- Matrix Collagen IV (score 0-4) ([2]; day 5): 2.1 ± 0.6 score 0-4
- Matrix Fibronectin (score 0-4) ([2]; day 5): 1.9 ± 1.2 score 0-4
- Matrix Trichrome (score 0-3) ([2]; day 5): 0.9 ± 0.3 score 0-3
- Matrix Collagen 1 (score 0-4) ([2]; day 8): 1.0 ± 0.6 score 0-4
- Matrix Collagen IV (score 0-4) ([2]; day 8): 1.3 ± 0.5 score 0-4
- Matrix Fibronectin (score 0-4) ([2]; day 8): 1.2 ± 0.8 score 0-4
- Matrix Trichrome (score 0-3) ([2]; day 8): 1.4 ± 0.4 score 0-3
- extracellular matrix formation as determined by Trichrome staining ([2]; day eight, in words): markedly suppressed
- glomerular accumulation of collagen I, collagen IV and fibronectin by immunohistochemistry ([2]; time course of anti-Thy1 disease, in words): reduced glomerular accumulation of all three extracellular matrix proteins
- MC-activation α-sm actin (score 0-4) ([3]; day 3): 1.1 ± 0.5 score 0-4
- MC-proliferation (OX-7 + /PCNA + cells/glomerulus) ([3]; day 3): 3.1 ± 0.8 cells/glomerulus
- Macrophages (ED-1 + cells/glomerulus) ([3]; day 3): 3.0 ± 1.8 cells/glomerulus
- MC-activation α-sm actin (score 0-4) ([3]; day 5): 2.8 ± 0.5 score 0-4
- MC-proliferation (OX-7 + /BrdU + cells/glomerulus) ([3]; day 5): 4.6 ± 1.9 cells/glomerulus
- MC-proliferation (OX-7 + /PCNA + cells/glomerulus) ([3]; day 5): 8.5 ± 1.6 cells/glomerulus
- Macrophages (ED-1 + cells/glomerulus) ([3]; day 5): 0.9 ± 0.5 cells/glomerulus
- MC-activation α-sm actin (score 0-4) ([3]; day 8): 2.5 ± 0.4 score 0-4
- MC-proliferation (OX-7 + /PCNA + cells/glomerulus) ([3]; day 8): 3.9 ± 0.8 cells/glomerulus
- Macrophages (ED-1 + cells/glomerulus) ([3]; day 8): 0.7 ± 0.3 cells/glomerulus
- MC activation (de novo expression of α-sm-actin) ([3]; in words): did not significantly alter
- block of activation of TGF-β by TSP1 [4]: able to block activation of TGF-β by TSP1
- Glomerular Microaneurysm (in percent) ([5]; day 3): 12.2 ± 11.6%
- Glomerular Microaneurysm (in percent) ([5]; day 5): 15.5 ± 11.8%
- Glomerular Microaneurysm (in percent) ([5]; day 8): 1.6 ± 1.8%
- Glomerular GEN-proliferation (double staining for RECA-1 and PCNA) [5]: 1.8±0.6
- mesangiolysis scores [5]: 2.5±0.4
- Active TGF-β (colonies > 62 um) (TGF-β): 220 ± 70 colonies > 62 um
- glomerular secretion of active TGF-β compared to control peptide (SLLK) treated rats (TGF-β; day eight glomeruli, p<0.01): markedly reduced
- Proteinuria (mg/24 hours) [6]: 51 ± 50 mg/24 hours
- twenty-four hour proteinuria [6]: 51±50 mg/twenty-four hours
- Blood urea nitrogen [6]: 23.6 ± 7.1 mg/dL

Substance: control/SLLK: control peptide SLLK (SEQ ID NO:47), group 1 [reference compound]
- TGF-β1 (score 0-4) ([1]; day 3): 0.2 ± 0.2 score 0-4
- TGF-β2 (score 0-4) ([1]; day 3): 0.2 ± 0.1 score 0-4
- TGF-βRI (score 0-4) ([1]; day 3): 0.4 ± 0.2 score 0-4
- TGF-βRII (score 0-4) ([1]; day 3): 0.4 ± 0.3 score 0-4
- TSP I (score 0-4) ([1]; day 3): 0.2 ± 0.2 score 0-4
- TGF-β1 (score 0-4) ([1]; day 5): 2.6 ± 0.6 score 0-4
- TGF-β2 (score 0-4) ([1]; day 5): 1.6 ± 0.4 score 0-4
- TGF-βRI (score 0-4) ([1]; day 5): 1.9 ± 0.5 score 0-4
- TGF-βRII (score 0-4) ([1]; day 5): 1.9 ± 0.5 score 0-4
- TSP I (score 0-4) ([1]; day 5): 2.0 ± 0.6 score 0-4
- TGF-β1 (score 0-4) ([1]; day 8): 1.5 ± 0.8 score 0-4
- TGF-β2 (score 0-4) ([1]; day 8): 1.3 ± 0.8 score 0-4
- TGF-βRI (score 0-4) ([1]; day 8): 1.8 ± 0.9 score 0-4
- TGF-βRII (score 0-4) ([1]; day 8): 1.3 ± 0.8 score 0-4
- TSP I (score 0-4) ([1]; day 8): 0.6 ± 0.3 score 0-4
- Matrix Collagen 1 (score 0-4) ([2]; day 3): 0.1 ± 0.1 score 0-4
- Matrix Collagen IV (score 0-4) ([2]; day 3): 1.2 ± 0.4 score 0-4
- Matrix Fibronectin (score 0-4) ([2]; day 3): 1.5 ± 0.8 score 0-4
- Matrix Trichrome (score 0-3) ([2]; day 3): 0.7 ± 0.3 score 0-3
- Matrix Collagen 1 (score 0-4) ([2]; day 5): 2.3 ± 0.5 score 0-4
- Matrix Collagen IV (score 0-4) ([2]; day 5): 3.3 ± 0.4 score 0-4
- Matrix Fibronectin (score 0-4) ([2]; day 5): 3.2 ± 0.4 score 0-4
- Matrix Trichrome (score 0-3) ([2]; day 5): 1.5 ± 0.2 score 0-3
- Matrix Collagen 1 (score 0-4) ([2]; day 8): 2.0 ± 0.5 score 0-4
- Matrix Collagen IV (score 0-4) ([2]; day 8): 2.6 ± 0.6 score 0-4
- Matrix Fibronectin (score 0-4) ([2]; day 8): 2.3 ± 0.9 score 0-4
- Matrix Trichrome (score 0-3) ([2]; day 8): 2.3 ± 0.4 score 0-3
- MC-activation α-sm actin (score 0-4) ([3]; day 3): 0.8 ± 0.4 score 0-4
- MC-proliferation (OX-7 + /PCNA + cells/glomerulus) ([3]; day 3): 3.6 ± 0.7 cells/glomerulus
- Macrophages (ED-1 + cells/glomerulus) ([3]; day 3): 4.5 ± 1.6 cells/glomerulus
- MC-activation α-sm actin (score 0-4) ([3]; day 5): 2.9 ± 0.3 score 0-4
- MC-proliferation (OX-7 + /BrdU + cells/glomerulus) ([3]; day 5): 4.7 ± 0.8 cells/glomerulus
- MC-proliferation (OX-7 + /PCNA + cells/glomerulus) ([3]; day 5): 9.1 ± 1.5 cells/glomerulus
- Macrophages (ED-1 + cells/glomerulus) ([3]; day 5): 1.9 ± 0.5 cells/glomerulus
- MC-activation α-sm actin (score 0-4) ([3]; day 8): 2.9 ± 0.5 score 0-4
- MC-proliferation (OX-7 + /PCNA + cells/glomerulus) ([3]; day 8): 4.2 ± 0.5 cells/glomerulus
- Macrophages (ED-1 + cells/glomerulus) ([3]; day 8): 1.5 ± 0.5 cells/glomerulus
- Glomerular Microaneurysm (in percent) ([5]; day 3): 34.0 ± 30.1%
- Glomerular Microaneurysm (in percent) ([5]; day 5): 20.6 ± 22.7%
- Glomerular Microaneurysm (in percent) ([5]; day 8): 6.0 ± 5.9%
- Glomerular GEN-proliferation (double staining for RECA-1 and PCNA) [5]: 2.2 cells/glomerular cross-section
- mesangiolysis scores [5]: 2.7±0.5
- Active TGF-β (colonies > 62 um) (TGF-β): 380 ± 60 colonies > 62 um
- Proteinuria (mg/24 hours) [6]: 83 ± 40 mg/24 hours
- twenty-four hour proteinuria [6]: 83±40 mg/twenty-four hours
- Blood urea nitrogen [6]: 33.2 ± 12.7 mg/dL

Source: patent US6458767B1, “Use of peptides inhibitory for thrombospondin dependent TGF-β activation in the treatment of kidney disease” (The UAB Research Foundation, priority 1994, dated 2002)
